Results: PMC3641831 (Biochemistry, 2010)

Tested on: poly(dA)•2poly(dT)
Assay: UV denaturation, triplex transition
Format: binding

c1cc2ccc3cccc4ccc(c1)c2c34 [Compound 5, reference compound]
stabilization of DNA triplex: does not stabilize
